Data: ChEMBL document CHEMBL1201862, “PubChem BioAssay data set” (2004)
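The compound was tested at five concentrations on cells cultured in 96-well plates, with a 48-hour exposure period. At the GI50, growth is halved.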 Calls of active or inactive are those of the source. Rule as the data show it: active = GI50 up to about 1.1 µM and inactive = higher.

Legend:
Assay in all cases: NCI anticancer screen, dose series, 48 h
RXF 393 = tested on: RXF 393
A498 = tested on: A498
SK-MEL-2 = tested on: SK-MEL-2
786-0 = tested on: 786-0
SK-MEL-28 = tested on: SK-MEL-28
U-251 = tested on: U-251
SK-OV-3 = tested on: SK-OV-3
SW-620 = tested on: SW-620
PC-3 = tested on: PC-3
M14 = tested on: M14
MDA-MB-435 = tested on: MDA-MB-435
MCF7 = tested on: MCF7
Hs-578T = tested on: Hs-578T
NCI/ADR-RES = tested on: NCI/ADR-RES
CCRF-CEM = tested on: CCRF-CEM
Malme-3M = tested on: Malme-3M
DU-145 = tested on: DU-145
HOP-92 = tested on: HOP-92
T47D = tested on: T47D
BT-549 = tested on: BT-549

CCOc1ccnc2c(OC)c(C)c3nc4ccccc4nc3c12
GI50 (RXF 393): 8.39 µM (inactive) | GI50 (A498): > 100 µM (inactive) | GI50 (SK-MEL-2): > 100 µM (inactive) | GI50 (786-0): > 100 µM (inactive) | GI50 (SK-MEL-28): > 100 µM (inactive) | GI50 (U-251): > 100 µM (inactive) | GI50 (SK-OV-3): > 100 µM (inactive) | GI50 (SW-620): > 100 µM (inactive) | GI50 (PC-3): 89.3 µM (inactive) | GI50 (M14): > 100 µM (inactive) | GI50 (MDA-MB-435): > 100 µM (inactive) | GI50 (MCF7): 26 µM (inactive) | GI50 (Hs-578T): > 100 µM (inactive) | GI50 (NCI/ADR-RES): 71.1 µM (inactive) | GI50 (CCRF-CEM): > 100 µM (inactive) | GI50 (Malme-3M): > 100 µM (inactive) | GI50 (DU-145): 41 µM (inactive) | GI50 (HOP-92): 93.8 µM (inactive) | GI50 (T47D): 3.31 µM (inactive)

CCOC(=O)c1c(SCCN2CCOCC2)n(-c2ccccc2)c(=S)n(-c2ccccc2)c1=O
GI50 (RXF 393): 18.6 µM (inactive) | GI50 (SK-MEL-2): > 100 µM (inactive) | GI50 (786-0): 21.2 µM (inactive) | GI50 (SK-MEL-28): 24 µM (inactive) | GI50 (U-251): > 100 µM (inactive) | GI50 (BT-549): 39.3 µM (inactive) | GI50 (SW-620): 21.1 µM (inactive) | GI50 (M14): 44.8 µM (inactive) | GI50 (MDA-MB-435): 47.2 µM (inactive) | GI50 (MCF7): 21.2 µM (inactive) | GI50 (Hs-578T): 37.8 µM (inactive) | GI50 (CCRF-CEM): 30.1 µM (inactive) | GI50 (Malme-3M): > 100 µM (inactive) | GI50 (DU-145): > 10 µM (inactive) | GI50 (HOP-92): 51.6 µM (inactive) | GI50 (T47D): 31.8 µM (inactive)

CC1(C)CC(=O)/C(=C/C2CCNC2=S)C(=O)N1 (stereo not given)
GI50 (A498): > 100 µM (inactive) | GI50 (SK-MEL-2): > 100 µM (inactive) | GI50 (786-0): > 100 µM (inactive) | GI50 (SK-MEL-28): > 100 µM (inactive) | GI50 (U-251): > 100 µM (inactive) | GI50 (SK-OV-3): > 100 µM (inactive) | GI50 (SW-620): > 100 µM (inactive) | GI50 (PC-3): > 100 µM (inactive) | GI50 (M14): > 100 µM (inactive) | GI50 (MDA-MB-435): > 100 µM (inactive) | GI50 (MCF7): > 100 µM (inactive) | GI50 (Hs-578T): > 100 µM (inactive) | GI50 (NCI/ADR-RES): > 100 µM (inactive) | GI50 (CCRF-CEM): > 100 µM (inactive) | GI50 (Malme-3M): > 100 µM (inactive) | GI50 (DU-145): > 100 µM (inactive) | GI50 (HOP-92): > 100 µM (inactive) | GI50 (T47D): > 100 µM (inactive)

COC(=O)C(CSSC[C@H](N/C(C)=C/C(C)=O)C(=O)OC)N/C(C)=C/C(C)=O (stereo not given in full)
GI50 (RXF 393): 15.1 µM (inactive) | GI50 (A498): > 100 µM (inactive) | GI50 (SK-MEL-2): > 100 µM (inactive) | GI50 (786-0): 32.2 µM (inactive) | GI50 (SK-MEL-28): > 100 µM (inactive) | GI50 (U-251): 33.3 µM (inactive) | GI50 (SK-OV-3): > 100 µM (inactive) | GI50 (SW-620): 34.1 µM (inactive) | GI50 (PC-3): 54.1 µM (inactive) | GI50 (M14): 30.8 µM (inactive) | GI50 (MDA-MB-435): 74.5 µM (inactive) | GI50 (MCF7): 26.9 µM (inactive) | GI50 (Hs-578T): 21.6 µM (inactive) | GI50 (NCI/ADR-RES): > 100 µM (inactive) | GI50 (CCRF-CEM): 26.4 µM (inactive) | GI50 (Malme-3M): 14.4 µM (inactive) | GI50 (DU-145): 25.7 µM (inactive) | GI50 (HOP-92): 32.5 µM (inactive) | GI50 (T47D): 16.6 µM (inactive)

O=C(O)CC(NC(=O)C(F)(F)F)C(=O)NC1Cc2ccccc2OC1=O (stereo not given)
GI50 (RXF 393): > 100 µM (inactive) | GI50 (SK-MEL-2): > 100 µM (inactive) | GI50 (786-0): > 100 µM (inactive) | GI50 (SK-MEL-28): > 100 µM (inactive) | GI50 (U-251): > 100 µM (inactive) | GI50 (SK-OV-3): > 100 µM (inactive) | GI50 (BT-549): > 100 µM (inactive) | GI50 (SW-620): > 100 µM (inactive) | GI50 (PC-3): > 100 µM (inactive) | GI50 (M14): > 100 µM (inactive) | GI50 (MDA-MB-435): > 100 µM (inactive) | GI50 (MCF7): > 100 µM (inactive) | GI50 (Hs-578T): > 100 µM (inactive) | GI50 (NCI/ADR-RES): > 100 µM (inactive) | GI50 (Malme-3M): > 100 µM (inactive) | GI50 (DU-145): > 100 µM (inactive)

CC(C)(C)n1c(=O)n2n(c1=O)Cc1cccc3cccc(c13)C2
GI50 (RXF 393): 13.9 µM (inactive) | GI50 (SK-MEL-2): 17.9 µM (inactive) | GI50 (786-0): 19.5 µM (inactive) | GI50 (SK-MEL-28): 21.7 µM (inactive) | GI50 (U-251): 15.3 µM (inactive) | GI50 (SK-OV-3): 27.1 µM (inactive) | GI50 (BT-549): 31.8 µM (inactive) | GI50 (SW-620): 17 µM (inactive) | GI50 (PC-3): 13 µM (inactive) | GI50 (M14): 18.4 µM (inactive) | GI50 (MDA-MB-435): 23.7 µM (inactive) | GI50 (MCF7): 22.8 µM (inactive) | GI50 (Hs-578T): 12.2 µM (inactive) | GI50 (NCI/ADR-RES): 14.4 µM (inactive) | GI50 (CCRF-CEM): 4.31 µM (inactive) | GI50 (Malme-3M): 14.2 µM (inactive) | GI50 (DU-145): 35.5 µM (inactive) | GI50 (HOP-92): 28.1 µM (inactive)

CCOC(=O)c1[nH]c2cccc3c2c1CC[C@H](NC(=O)C(F)(F)F)C3=O
GI50 (A498): 43.7 µM (inactive) | GI50 (SK-MEL-2): 20 µM (inactive) | GI50 (786-0): 31.2 µM (inactive) | GI50 (SK-MEL-28): < 0.01 µM (active) | GI50 (U-251): 22.5 µM (inactive) | GI50 (BT-549): 40.4 µM (inactive) | GI50 (SW-620): 76.7 µM (inactive) | GI50 (PC-3): 64.6 µM (inactive) | GI50 (M14): 95.5 µM (inactive) | GI50 (MDA-MB-435): 45.1 µM (inactive) | GI50 (MCF7): 73.1 µM (inactive) | GI50 (Hs-578T): 19.5 µM (inactive) | GI50 (NCI/ADR-RES): 54 µM (inactive) | GI50 (CCRF-CEM): > 100 µM (inactive) | GI50 (Malme-3M): > 100 µM (inactive) | GI50 (DU-145): > 100 µM (inactive) | GI50 (HOP-92): 22.6 µM (inactive)

N#Cc1c(N2CCN(c3ccc([N+](=O)[O-])cc3)CC2)[n+]([O-])c2ccccc2[n+]1[O-]
GI50 (RXF 393): > 100 µM (inactive) | GI50 (SK-MEL-2): > 100 µM (inactive) | GI50 (786-0): > 100 µM (inactive) | GI50 (SK-MEL-28): > 100 µM (inactive) | GI50 (U-251): 78.2 µM (inactive) | GI50 (SK-OV-3): > 100 µM (inactive) | GI50 (BT-549): > 100 µM (inactive) | GI50 (SW-620): > 100 µM (inactive) | GI50 (PC-3): > 100 µM (inactive) | GI50 (M14): > 100 µM (inactive) | GI50 (MDA-MB-435): > 100 µM (inactive) | GI50 (MCF7): > 100 µM (inactive) | GI50 (NCI/ADR-RES): 79.4 µM (inactive) | GI50 (CCRF-CEM): 4.94 µM (inactive) | GI50 (Malme-3M): > 100 µM (inactive) | GI50 (DU-145): > 100 µM (inactive) | GI50 (T47D): 55.6 µM (inactive)
